One assay concerns serum GPT. As to the kind of experiment: Test No. 4: dichloropropane (DCP) intoxication in vivo, serum GPT. Also on record: species or system rat. Here is the method: A test was carried out in vivo on four groups of four rats each, using, as a toxic substance, dichloropropane (DCP), the main constituent of several solvents. DCP is noxious both by ingestion and inhalation and has a notable toxicity to the liver, mediated by an almost total depletion of thiol groups, including those of GSH.
The experimental model involves the study of the effect of DCP toxicity in the rat, in respect of glutathione (GSH) concentration in the main target tissue: the liver.
Tests were carried out on four groups of rats. The first group of animals was administered 2 ml DCP/kg dissolved in oil (40% v/v) per os. Twenty-four hours after DCP administration, blood samples were taken for SGPT measurement, while the animals were sacrificed; small portions of liver were then excised and immediately deproteinized by homogenization in 6% PCA. The chromatographic analyses of GSH and GSSG (oxidized glutathione) were performed.
The second group of animals was treated with the test drug (600 mg/kg i.p.) two hours after DCP administration. The third and fourth groups were treated with N-acetyl-cysteine (NAC) (250 mg/kg i.p.) and, respectively, with glutathione (Tationil^R) (600 mg/kg i.p.).

The test system of the next assay is splenocytes. In words: Blastization with concavaline A (ConA) on splenocytes of PSC-treated young and old rats. Format: in vivo, Sprague-Dawley rats. Here is the method:
(§1) Sprague-Dawley rats (Charles River, Calco (CO)), aged 10 weeks (young adults) and 24 months (old), were stabled under standard conditions (24°±1° C., 12 h light/dark cycle, free access to food and water). Handlings were made in such a way as to avoid stressful stimuli.
(§2) The animals were stabled in groups of 6 per cage and treated for 2 weeks (15 days) with a PSC daily dose of 600 mg/kg by intraperitoneal route (i.p.).
Once the treatment with PSC previously described in the paragraph "Animals" was completed, the animals were sacrificed by decapitation, spleens were excised under sterile conditions and broken up in a Petri dish. The splenocytes thus obtained by mechanical dispersion were placed in culture medium RPMI 1640 with addition of calf fetal serum (FBS) (10%).
The resulting cellular suspension was centrifuged at 2500 rpm for 20 min on Ficoll-Paque gradient. Stratified splenocytes were taken by a sterile Pasteur pipette and washed three times with sterile FBS. Cells were counted and placed onto 96-well plastic plates at a concentration of 1×10^5 /well in of volume of 0.1 ml. The cultures thus obtained were incubated for 48 hrs at 37° C., in a […] environment. Forty-eight hours later, concavaline A (ConcA) was added to the cultures at a concentration of 1 μg/ml in a volume of 0.1 ml. Eighteen hours later, tritiated thymidine was added (volume: 10 μl). Incorporation of tritiated thymidine was stopped after 3 hrs, by elimination of excess liquid by suction and by sucking the cells on fibreglass filters. Filters were placed in scintillation vials containing 5 ml of scintillating solution (Insta-Gel). Radioactivity (dpm) was measured during 2 min using a β-counter.
The results obtained on groups treated with ConA alone (controls), on groups treated with PSC (600 mg/kg), and on groups that had not been treated either with ConA or PSC are compared in Table 13.

Another assay deals with peripheral lymphocytes. In words: Blastization with concavaline A (ConA) of peripheral lymphocytes of PSC-treated rats. Format: in vivo, Sprague-Dawley rats. The protocol:
as §1, §2
Once the treatment with PSC previously described in the paragraph "Animals" was completed, the animals, both young and old, were sacrificed by decapitation and the blood collected in heparin-treated tubes. The blood samples were stratified on Ficoll-Paque gradient and centrifuged at 2500 rpm for 15 min. The lymphocytic cellular fraction was taken by suction and washed three times with a Lphysiological solution (0.9% NaCl). At the end of the treatment, the cells were resuspended in culture medium RPMI 1640 containing 10% FBS, counted (1×10^5 cells/0.1 ml/well) and incubated for 48 hrs at 37° C., in a 5% carbon dioxide environment. At the incubation end, mitogens concavaline A (ConA) and phytohaemagglutinin (PHA) were added to the cultures at a concentration of 1 μg/ml in a volume of 0.1 ml. Eighteen hours later, tritiated thymidine (0.01 ml) was added to the cultures, subsequently incubated for 3 hrs. At the incubation end, cells were sucked by cell harvester and the filters were placed in scintillation vials with addition of 5 ml of scintillating solution. Radioactivity (dpm) was measured 2 min. using a β-counter.
The results obtained on ConA- or PHA-treated groups (controls), on PSC-treated groups (600 mg/kg), and on groups that had not been treated either with ConA or PSC are compared in Tables 14 and 15.

The subject of another assay is hepatic GSH. As to the kind of experiment: Test No. 1: protection from ethanol acute administration, hepatic GSH content. Format: in vivo, male albino Wistar rats. On the set-up: GSH Content: unit not given beside the values. As to conditions: for GSH Content: liver, ethanol 3 g/kg i.p. The protocol:
Protection from ethanol acute administration […] Male albino Wistar rats weighing between 180 and 230 g were used. All animals were fasted for 24 hours prior to administration of isotonic solution, ethanol or ethanol combined with the test substances. As concerns the test substances, rats were intraperitoneally (i.p.) injected with compound of formula I (R=CH3) at doses of 10, 30, and 50 mg/kg and, for purposes of comparison, with the single constituents of compound (I) (R=CH3), […] (O-PRO) and L-cysteine (CIS), both at a 50 mg/kg dose. One hour after administration of the test substance, ethanol was injected i.p. at the dose of 3 g/kg. Thirty minutes later, the animals were sacrificed by decapitation and their liver was excised. […] Orwar et al., J. Chromatrogr., 556, 39-55 (1991).

Assay [1] has as its system murine fibrosarcoma cells (WEHI 164 clone 13). As to the kind of experiment: Transplantable neoplasms: murine fibrosarcoma tumoral mass growth in BALB/c mice. Format: in vivo. The protocol: Male adult BALB/c mice weighing 20 g were stabled under standard conditions (24°±1° C., 12 h light/dark cycle, free access to food and water). Handlings were made in such a way as to avoid stressful stimuli.
All animals, subdivided into groups of 6, were treated 4 weeks with a PSC dose (600 mg/kg). After a 2 week treatment, the mice were inoculated intramuscularly (i.m.) with murine fibrosarcoma WEHI 164 clone 13 cells or Lewis lung carcinoma in an amount of 1×10^5 cells. Treatment was continued two weeks after tumour inoculation. The mice were sacrificed and the tumoral mass growth and the development of metastases, if any, were evaluated.

Setting [2] is: 600 mg/kg i.p. 15 days + ConA, *P < 0.05.
Setting [3] is: 600 mg/kg, analogous for ConA and PHA.

Each structure is given as a SMILES string. Where “and” joins values, the source holds several entries; their conditions need not be identical. Equal entries are not always repeated. Entries after “also recorded” stand apart in the source; their conditions may differ. Peptide text beside a SMILES is read from it.

This note sets out measurements from patent US5736565A, “Therapeutic compounds suitable for the treatment of diseases connected with glutathione deficiency, process for their preparation, and pharmaceutical compositions containing same” (Prospa B.V., priority 1992, dated 1998).

For `CC(=O)SC[C@H](NC(=O)[C@@H]1CCC(=O)N1)C(=O)O` [PSC, 2-(S)-(2-pyrrolidone-5-(S)-carbonyl amido)-3-acetylmercapto propionic acid] (HELM PEPTIDE1{[Glp].C}|PEPTIDE2{[ac]}$PEPTIDE1,PEPTIDE2,2:R3-1:R2$$$V2.0), the “GPT, average values” in the assay with serum GPT (DCP + 600 mg/kg i.p.) is given as 22.0 U/1. The “GPT, individual animals” value in the assay with serum GPT (DCP + 600 mg/kg i.p., animals 1-4, listed as (I) (R = CH3), 600 mg/kg) was 24.4 U/1 and 26.4 U/1 and 17.4 U/1 and 20.1 U/1. The “GPT” value in the assay on serum GPT (DCP + (I)(R=CH3)) came out at 22.0 U/l. Further, the “Serum GPT (in words)” value with serum GPT (DCP-treated rats) is “maintained within standard limits”. In addition, in the assay on splenocytes (600 mg/kg), the “splenocytes blastization induced by ConA (in words)” value is “showed a significant increase in splenocytes blastization induced by ConA”. For the same molecule, the “blastization (tritiated thymidine incorporation), Young” value in the assay on splenocytes (600 mg/kg i.p. 15 days + ConA) amounted to 1488 ± 62 DPM × 100; with peripheral lymphocytes (600 mg/kg i.p. 15 days + ConA), 714 ± 23 DPM × 100. The “blastization (tritiated thymidine incorporation), Old” value with splenocytes (setting [2]) turned out to be 1250 ± 11 DPM × 100. Moreover, the “blastization (tritiated thymidine incorporation), Elderly” value in the assay with peripheral lymphocytes (setting [2]) is 512 ± 27 DPM × 100. For the same molecule, the “incorporation index of tritiated thymidine, young rats (in words)” value in the assay on peripheral lymphocytes (setting [3]) was “did not differ from controls”. Besides, the “index of thymidine incorporation, old rats (in words)” value in the assay on peripheral lymphocytes (setting [3]) is “showed an increased index of thymidine incorporation in respect of controls”. Further, in the assay on hepatic GSH (ethanol-treated rats), the “hepatic glutathione formation (in words)” value is reported as “enhances hepatic glutathione formation nearly to physiological levels”. Moreover, the “GSH Content” value in the assay on hepatic GSH (test substance 10 mg/kg i.p.) is recorded as 3.6 ± 0.3; with hepatic GSH (test substance 30 mg/kg i.p.), 4.3 ± 0.6; in the assay with hepatic GSH (test substance 50 mg/kg) it was 5.8 ± 0.4. In addition, the “tumoural growth, fibrosarcoma (in words)” value in assay [1] (600 mg/kg) is reported as “prevented tumoural growth; also recorded: significantly slows down the growth of fibrosarcomatous tumours in the rat”. Moreover, the “Tumoral mass diameter, 15th day” value in assay [1] (600 mg/kg i.p., 30 days' treatment) was 0.6 ± 0.03 cm.
